From patent US9439982B2, “Fluorescent cyanine-polyamine derivatives as a diagnostic probe” (PIERRE FABRE MEDICAMENT, priority 2010, dated 2016)
Values joined by “and” are separate entries in the source; they are usually repeats but may differ in a detail not shown here. Identical values can stand only once.

How the values were obtained:
[1] = Tolerance of the injection of increasing doses of the probe in healthy mice; assay type: in vivo; settings: healthy male C57B16 mice, 25, 50 and 100 μg
Experimental: (§1) 6 healthy male C57B16 mice, aged 11 weeks, were used to evaluate the tolerance of the injection of increasing doses of the probe of example 7 (F98942) (25, 50 and 100 μg). 11 male C57B16 mice aged 10 weeks were grafted subcutaneously on the right rear paw with 2.5.10^5 B16/F10-Luc mouse melanoma cells.
(§2) The probe F98942 is placed in solution in sterile 5% glucose serum extemporaneously.

[2] = system: B16/F10-Luc mouse melanoma cells; assay: In vivo detection by fluorescence imaging of the probe accumulating in a tumour on an animal; settings: for Tumour fixation: Fluorescence at t = 24 hrs: individual mice, 24 hrs post-injection, subcutaneous B16/F10-Luc tumour in C57B16 mice; for Tumour fixation: Mean fluorescence: 24 hrs; for Detection of the probe's fluorescence in the tumour in vivo: tumour B16F10 in mice, fluorescence imaging after intravenous injection
Experimental: as §1, §2
The mice were injected with 50 μg or 25 μg of F98942 or PBS (Phosphate Buffered Saline) intravenously. They were then anaesthetised by isoflurane gas inhalation (3% isoflurane/oxygen) prior to the fluorescence imaging examination 24 and 48 hours post-injection. After 48 hours, the tumours were removed and analysed by means of fluorescence imaging. […]

SMILES | Tolerance of injection [1] | Tumour fixation: Fluorescence at t = 24 hrs ([2]; 25 μg intravenously) | Tumour fixation: Fluorescence at t = 24 hrs ([2]; 50 μg intravenously) | Tumour fixation: Mean fluorescence ([2]; mean of mice 1-4, 50 μg intravenously) | Tumour fixation: Mean fluorescence ([2]; mean of mice 5-6, 25 μg intravenously) | Detection of the probe's fluorescence in the tumour in vivo [2]
CCCCN1/C(=C/C=C/C=C/C=C/C2=[N+](CCCCCC(=O)NCCCNCCCCNCCCN)c3ccccc3C2(C)C)C(C)(C)c2ccccc21.[Br-] [Example F98942, 1-(5-{3-[4-(3-aminopropylamino)butylamino]-propylcarbamoyl}-pentyl)-2-{(1E,3E,5E)-7-[1-butyl-3,3-dimethyl-1,3-dihydroindol-(2E)-ylidene]-hepta-1,3,5-trienyl}-3,3-dimethyl-3H-indolium bromide] | well-tolerated regardless of the dose | 1.52 · 10^7 [p/s/cm^2/sr]/[μW/cm^2] and 2.10 · 10^7 [p/s/cm^2/sr]/[μW/cm^2] | 3.22 · 10^7 [p/s/cm^2/sr]/[μW/cm^2] and 3.08 · 10^7 [p/s/cm^2/sr]/[μW/cm^2] and 3.12 · 10^7 [p/s/cm^2/sr]/[μW/cm^2] and 3.01 · 10^7 [p/s/cm^2/sr]/[μW/cm^2] | 3.14 · 10^7 [p/s/cm^2/sr]/[μW/cm^2] | 1.81 · 10^7 [p/s/cm^2/sr]/[μW/cm^2] | detected
CC1(C)C(/C=C/C2=C(c3ccc(C(=O)NCCCNCCCCNCCCN)cc3)C(=C/C=C3/N(CCCCS(=O)(=O)O)c4ccc5ccccc5c4C3(C)C)/CCC2)=[N+](CCCCS(=O)(=O)[O-])c2ccc3ccccc3c21 [comparative probe, reference compound] | – | – | – | – | – | not detected
